# Assay results reported in patent publication US8765728B2, “[1,5]-diazocin derivatives” (MelliTech, priority 2009, dated 2014).
# Tested on: Min6 cell
# Test: Insulin secretion response of beta cell line to formula I compounds (insulin ELISA)
# Format: cell-based
# Settings: rank according to % increase versus control at most effective dose
# Procedure: The secretory responses of beta cell lines to glucose were tested as described in Merglen et al. Endocrinology, (2004) 145(2):667-78.
# Briefly, after incubation with compounds from formula I or control vehicle, cells were maintained for 2 hours in glucose-free culture medium. The cells were then washed twice and preincubated for 30 minutes at 37° C. in glucose-free Krebs-Ringer bicarbonate HEPES buffer (KRBH: 135 mM NaCl, 3.6 mM KCl, 5 mM NaHCO3, 0.5 mM NaH2PO4, 0.5 mM MgCl2, 1.5 mM CaCl2, and 10 mM HEPES, pH 7.4). BSA (0.1%) was added as an insulin carrier. Cells were subsequently washed with glucose-free KRBH and then incubated for 30 minutes at 37° C. in KRBH containing different concentrations of glucose. The reaction was stopped by placing the plates on ice; supernatants were collected to determine insulin secretion and cells were used for intracellular insulin content following acid-ethanol extraction. Insulin was measured by ELISA (Linco) according to the manufacturer's instructions.
row,SMILES,Insulin secretion (Min6 cell) Range 1 to 5
1,"COc1ccc2c(c1)CN(C1CC1)C(=O)CCN2CC(O)c1ccc2c(c1)OCCO2 (centres unmarked) [Compound 29, 5-cyclopropyl-1-(2-(2,3-dihydrobenzo[b][1,4]dioxin-6-yl)-2-hydroxyethyl)-8-methoxy-2,3,5,6-tetrahydrobenzo[b][1,5]diazocin-4(1H)-one]",2 (2: 110-120% of control)
2,"COc1cccc(C(O)CN2CCC(=O)N(C3CC3)Cc3cc(OC)ccc32)c1 (centres unmarked) [Compound 30, 5-cyclopropyl-1-(2-hydroxy-2-(3-methoxyphenyl)ethyl)-8-methoxy-2,3,5,6-tetrahydrobenzo[b][1,5]diazocin-4(1H)-one]",1 (1: 90-110% of control)
3,"COc1ccc2c(c1)CN(C1CC1)C(=O)CCN2CC(O)c1cccc(F)c1 (centres unmarked) [Compound 31, 5-cyclopropyl-1-(2-(3-fluorophenyl)-2-hydroxyethyl)-8-methoxy-2,3,5,6-tetrahydrobenzo[b][1,5]diazocin-4(1H)-one]",1 (1: 90-110% of control)
4,"COc1ccc(C(O)CN2CCC(=O)N(C3CC3)Cc3cc(OC)ccc32)cc1 (centres unmarked) [Compound 32, 5-cyclopropyl-1-(2-hydroxy-2-(4-methoxyphenyl)ethyl)-8-methoxy-2,3,5,6-tetrahydrobenzo[b][1,5]diazocin-4(1H)-one]",3 (3: 120-140% of control)
5,"COc1ccc2c(c1)CN(C1CC1)C(=O)CCN2CC(O)c1ccc(OC(F)(F)F)cc1 (centres unmarked) [Compound 33, 5-cyclopropyl-1-(2-hydroxy-2-(4-(trifluoromethoxy)phenyl)ethyl)-8-methoxy-2,3,5,6-tetrahydrobenzo[b][1,5]diazocin-4(1H)-one]",2 (2: 110-120% of control)
6,"COc1ccc2c(c1)CN(C1CC1)C(=O)CCN2CC(O)c1ccc(F)c(F)c1 (centres unmarked) [Compound 34, 5-cyclopropyl-1-(2-(3,4-difluorophenyl)-2-hydroxyethyl)-8-methoxy-2,3,5,6-tetrahydrobenzo[b][1,5]diazocin-4(1H)-one]",1 (1: 90-110% of control)
7,"O=C(CN1CCC(=O)N(C2CC2)Cc2cc(F)ccc21)c1ccccc1 [Compound 35, 5-cyclopropyl-8-fluoro-1-(2-oxo-2-phenylethyl)-2,3,5,6-tetrahydrobenzo[b][1,5]diazocin-4(1H)-one]",1 (1: 90-110% of control)
8,"COc1ccccc1C(=O)CN1CCC(=O)N(C2CC2)Cc2cc(F)ccc21 [Compound 36, 5-cyclopropyl-8-fluoro-1-(2-(2-methoxyphenyl)-2-oxoethyl)-2,3,5,6-tetrahydrobenzo[b][1,5]diazocin-4(1H)-one]",2 (2: 110-120% of control)
9,"COc1cccc(C(=O)CN2CCC(=O)N(C3CC3)Cc3cc(F)ccc32)c1 [Compound 37, 5-cyclopropyl-8-fluoro-1-(2-(3-methoxyphenyl)-2-oxoethyl)-2,3,5,6-tetrahydrobenzo[b][1,5]diazocin-4(1H)-one]",4 (4: 140-170% of control)
10,"COc1ccc(C(=O)CN2CCC(=O)N(C3CC3)Cc3cc(F)ccc32)cc1 [Compound 38, 5-cyclopropyl-8-fluoro-1-(2-(4-methoxyphenyl)-2-oxoethyl)-2,3,5,6-tetrahydrobenzo[b][1,5]diazocin-4(1H)-one]",1 (1: 90-110% of control)
11,"COc1ccc(OC)c(C(=O)CN2CCC(=O)N(C3CC3)Cc3cc(F)ccc32)c1 [Compound 39, 5-cyclopropyl-1-(2-(2,5-dimethoxyphenyl)-2-oxoethyl)-8-fluoro-2,3,5,6-tetrahydrobenzo[b][1,5]diazocin-4(1H)-one]",3 (3: 120-140% of control)
12,"O=C(CN1CCC(=O)N(C2CC2)Cc2cc(F)ccc21)c1ccc(F)cc1 [Compound 40, 5-cyclopropyl-8-fluoro-1-(2-(4-fluorophenyl)-2-oxoethyl)-2,3,5,6-tetrahydrobenzo[b][1,5]diazocin-4(1H)-one]",3 (3: 120-140% of control)
13,"O=C(CN1CCC(=O)N(C2CC2)Cc2cc(F)ccc21)c1cccc(F)c1 [Compound 41, 5-cyclopropyl-8-fluoro-1-(2-(3-fluorophenyl)-2-oxoethyl)-2,3,5,6-tetrahydrobenzo[b][1,5]diazocin-4(1H)-one]",3 (3: 120-140% of control)
14,"O=C(CN1CCC(=O)N(C2CC2)Cc2cc(F)ccc21)c1ccc(OC(F)(F)F)cc1 [Compound 42, 5-cyclopropyl-8-fluoro-1-(2-oxo-2-(4-(trifluoromethoxy)phenyl)ethyl)-2,3,5,6-tetrahydrobenzo[b][1,5]diazocin-4(1H)-one]",1 (1: 90-110% of control)
15,"O=C(CN1CCC(=O)N(C2CC2)Cc2cc(F)ccc21)c1ccc(F)c(F)c1 [Compound 43, 5-cyclopropyl-1-(2-(3,4-difluorophenyl)-2-oxoethyl)-8-fluoro-2,3,5,6-tetrahydrobenzo[b][1,5]diazocin-4(1H)-one]",2 (2: 110-120% of control)
16,"O=C(CN1CCC(=O)N(C2CC2)Cc2cc(F)ccc21)c1ccc(Cl)cc1 [Compound 44, 1-(2-(4-chlorophenyl)-2-oxoethyl)-5-cyclopropyl-8-fluoro-2,3,5,6-tetrahydrobenzo[b][1,5]diazocin-4(1H)-one]",1 (1: 90-110% of control)
17,"COc1ccc(OC)c(C(O)CN2CCC(=O)N(C3CC3)Cc3cc(F)ccc32)c1 (centres unmarked) [Compound 45, 5-cyclopropyl-1-(2-(2,5-dimethoxyphenyl)-2-hydroxyethyl)-8-fluoro-2,3,5,6-tetrahydrobenzo[b][1,5]diazocin-4(1H)-one]",1 (1: 90-110% of control)
18,"O=C1CCN(CC(O)c2ccc(F)cc2)c2ccc(F)cc2CN1C1CC1 (centres unmarked) [Compound 46, 5-cyclopropyl-8-fluoro-1-(2-(4-fluorophenyl)-2-hydroxyethyl)-2,3,5,6-tetrahydrobenzo[b][1,5]diazocin-4(1H)-one]",2 (2: 110-120% of control)
19,"O=C1CCN(CC(O)c2cccc(F)c2)c2ccc(F)cc2CN1C1CC1 (centres unmarked) [Compound 47, 5-cyclopropyl-8-fluoro-1-(2-(3-fluorophenyl)-2-hydroxyethyl)-2,3,5,6-tetrahydrobenzo[b][1,5]diazocin-4(1H)-one]",2 (2: 110-120% of control)
20,"O=C1CCN(CC(O)c2ccc(OC(F)(F)F)cc2)c2ccc(F)cc2CN1C1CC1 (centres unmarked) [Compound 48, 5-cyclopropyl-8-fluoro-1-(2-hydroxy-2-(4-(trifluoromethoxy)phenyl)ethyl)-2,3,5,6-tetrahydrobenzo[b][1,5]diazocin-4(1H)-one]",2 (2: 110-120% of control)
21,"O=C1CCN(CC(O)c2ccc(F)c(F)c2)c2ccc(F)cc2CN1C1CC1 (centres unmarked) [Compound 49, 5-cyclopropyl-1-(2-(3,4-difluorophenyl)-2-hydroxyethyl)-8-fluoro-2,3,5,6-tetrahydrobenzo[b][1,5]diazocin-4(1H)-one]",5 (5: >170% of control)
22,"O=C1CCN(CC(O)c2ccc(Cl)cc2)c2ccc(F)cc2CN1C1CC1 (centres unmarked) [Compound 50, 1-(2-(4-chlorophenyl)-2-hydroxyethyl)-5-cyclopropyl-8-fluoro-2,3,5,6-tetrahydrobenzo[b][1,5]diazocin-4(1H)-one]",2 (2: 110-120% of control)
23,"COc1ccc(OCC(O)CN2CCC(=O)N(C3CC3)Cc3cc(OC)ccc32)cc1 (centres unmarked) [Compound 51, 5-cyclopropyl-1-(2-hydroxy-3-(4-methoxyphenoxy)propyl)-8-methoxy-2,3,5,6-tetrahydrobenzo[b][1,5]diazocin-4(1H)-one]",2 (2: 110-120% of control)
24,"O=C1CCN(CC(O)COc2ccccc2)c2ccc(F)cc2CN1C1CC1 (centres unmarked) [Compound 52, 5-cyclopropyl-8-fluoro-1-(2-hydroxy-3-phenoxypropyl)-2,3,5,6-tetrahydrobenzo[b][1,5]diazocin-4(1H)-one]",1 (1: 90-110% of control)
25,"COc1ccc(OCC(O)CN2CCC(=O)N(C3CC3)Cc3cc(F)ccc32)cc1 (centres unmarked) [Compound 53, 5-cyclopropyl-8-fluoro-1-(2-hydroxy-3-(4-methoxyphenoxy)propyl)-2,3,5,6-tetrahydrobenzo[b][1,5]diazocin-4(1H)-one]",1 (1: 90-110% of control)
26,"COc1ccc2c(c1)CNC(=O)CCN2 [Compound 54, 8-methoxy-2,3,5,6-tetrahydrobenzo[b][1,5]diazocin-4(1H)-one]",1 (1: 90-110% of control)
27,"O=C(CN1CCC(=O)N(C2CC2)Cc2cc(F)ccc21)c1ccc2c(c1)OCCO2 [Compound 55, 5-cyclopropyl-1-(2-(2,3-dihydrobenzo[b][1,4]dioxin-6-yl)-2-oxoethyl)-8-fluoro-2,3,5,6-tetrahydrobenzo[b][1,5]diazocin-4(1H)-one]",2 (2: 110-120% of control)
28,"O=C(CN1CCC(=O)N(C2CC2)Cc2cc(F)ccc21)c1ccc(N2CCCC2)cc1 [Compound 56, 5-cyclopropyl-8-fluoro-1-(2-oxo-2-(4-(pyrrolidin-1-yl)phenyl)ethyl)-2,3,5,6-tetrahydrobenzo[b][1,5]diazocin-4(1H)-one]",2 (2: 110-120% of control)
29,"COc1ccccc1C(O)CN1CCC(=O)N(C2CC2)Cc2cc(F)ccc21 (centres unmarked) [Compound 57, 5-cyclopropyl-8-fluoro-1-(2-hydroxy-2-(2-methoxyphenyl)ethyl)-2,3,5,6-tetrahydrobenzo[b][1,5]diazocin-4(1H)-one]",2 (2: 110-120% of control)
